Test results published in PubChem BioAssay AID652076 (The Scripps Research Institute Molecular Screening Center, 2013).
Calls of active or inactive are those of the source. How the calls were made is not given here.

Target: Cytochrome P450 1A2 (Homo sapiens) (UniProt P05177)
Experiment: CYP1A2 enzyme inhibition, late-stage follow-up, biochemical (AID 652076)
Conditions: Human CYP inhibition panel, LC-MS/MS marker substrate metabolism

Chain of Cytochrome P450 1A2 (Homo sapiens) (P05177 whole entry, looked up): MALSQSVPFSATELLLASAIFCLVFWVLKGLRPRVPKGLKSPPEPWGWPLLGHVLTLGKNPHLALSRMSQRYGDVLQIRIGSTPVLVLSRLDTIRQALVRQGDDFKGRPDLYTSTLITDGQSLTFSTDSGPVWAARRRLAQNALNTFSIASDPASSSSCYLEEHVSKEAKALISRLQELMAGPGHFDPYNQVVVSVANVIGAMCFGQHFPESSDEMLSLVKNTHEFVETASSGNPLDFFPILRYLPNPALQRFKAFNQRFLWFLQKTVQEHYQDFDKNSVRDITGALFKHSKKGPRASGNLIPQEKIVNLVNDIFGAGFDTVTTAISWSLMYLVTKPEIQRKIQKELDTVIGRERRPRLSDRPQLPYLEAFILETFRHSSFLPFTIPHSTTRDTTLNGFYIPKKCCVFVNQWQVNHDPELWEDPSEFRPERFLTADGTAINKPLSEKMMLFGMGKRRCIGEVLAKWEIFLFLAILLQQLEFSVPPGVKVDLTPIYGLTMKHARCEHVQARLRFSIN

For `COC(=O)c1cc(Br)cnc1N1CCC(NC2CCCCC2)C(O)C1` (configuration not stated), the outcome was “active” and the inhibition (CYP1A2, at 10 µM, hits give high values) was -9%.
